Where two headings read alike, the source gives them in different places.
Experiments:
[1] = Solubility via potentiometric titration (pSOL solubility profiler); format: physicochemical; details: for Solubility data: hydrochloride; for solubility: water, thermodynamic from solid
Procedure: Solubility data of Forms II, III, IV, V, VI and VIII are measured according to Alex Avdeef et al, Pharm. Pharmacol. Commun.
The pSOLTM solubility profiler, automatically collects potentiometric data, calculates the pH-solubility profiles, and prints the values at 0.1 pH unit intervals. Intrinsic solubilities in the milli-, micro- and nanogram levels can be determined. Also presented are two new concepts, the Flux Factor Profile and Dose Limit Profile. Both concepts follow the guidelines consistent with the BioPharmaceutics Classification Scheme.

[2] = Thermodynamic stability of the forms, energy/temperature diagram (FIG. 27); format: physicochemical
Description: FIG. 27 is an energy/temperature diagram of Forms III, IV and VII

Cl.N#Cc1ccc2[nH]cc(CCCCN3CCN(c4ccc5oc(C(N)=O)cc5c4)CC3)c2c1 [Form I, 1-[4-(5-cyanoindol-3-yl)butyl]-4-(2-carbamoyl-benzofuran-5-yl)-piperazine hydrochloride]
Solubility data ([1]; potentiometric titration according to Avdeef et al., listed as I): 0.08 µg/mL

Cl.N#Cc1ccc2[nH]cc(CCCCN3CCN(c4ccc5oc(C(N)=O)cc5c4)CC3)c2c1 [Form II, 1-[4-(5-cyanoindol-3-yl)butyl]-4-(2-carbamoyl-benzofuran-5-yl)-piperazine hydrochloride]
Solubility data ([1]; potentiometric titration according to Avdeef et al., listed as II): 0.03 µg/mL

Cl.N#Cc1ccc2[nH]cc(CCCCN3CCN(c4ccc5oc(C(N)=O)cc5c4)CC3)c2c1 [Form III, 1-[4-(5-cyanoindol-3-yl)butyl]-4-(2-carbamoyl-benzofuran-5-yl)-piperazine hydrochloride]
Solubility data ([1]; potentiometric titration according to Avdeef et al., listed as III): 0.12 µg/mL
relative (thermodynamic) stability of the form at room temperature ([2]; room temperature): the most stable form at room temperature

Cl.N#Cc1ccc2[nH]cc(CCCCN3CCN(c4ccc5oc(C(N)=O)cc5c4)CC3)c2c1 [Form IV, 1-[4-(5-cyanoindol-3-yl)butyl]-4-(2-carbamoyl-benzofuran-5-yl)-piperazine hydrochloride]
Solubility data ([1]; potentiometric titration according to Avdeef et al., listed as IV): 0.33 µg/mL
solubility ([1]; in water, read-out: solubility in water): 0.328 µg/mL
relative stability of the form at higher temperatures ([2]; higher temperatures, e.g. >100° C.): the most stable form at higher temperatures

Cl.N#Cc1ccc2[nH]cc(CCCCN3CCN(c4ccc5oc(C(N)=O)cc5c4)CC3)c2c1.O [Form V, 1-[4-(5-cyanoindol-3-yl)butyl]-4-(2-carbamoyl-benzofuran-5-yl)-piperazine hydrochloride monohydrate]
solubility ([1]; potentiometric titration according to Avdeef et al., read-out: Solubility data): 0.18 µg/mL

Cl.N#Cc1ccc2[nH]cc(CCCCN3CCN(c4ccc5oc(C(N)=O)cc5c4)CC3)c2c1 [Form VI, 1-[4-(5-cyanoindol-3-yl)butyl]-4-(2-carbamoyl-benzofuran-5-yl)-piperazine hydrochloride]
Solubility data ([1]; potentiometric titration according to Avdeef et al., listed as VI): 0.23 µg/mL

— patent US8193195B2, “Polymorphic forms of 1-'4-(5-cyanoindol-3-yl) butyl-4-(2-carbamoylbenzofuran-5-yl) piperazine hydrochloride” (Merck Patentgesellschaft, priority 2001, dated 2012)
